Source: patent US7205298B2, “Substituted triazine kinase inhibitors” (Janssen Pharmaceutica N.V., priority 2002, dated 2007)
pIC50: −log10 of the molar value.

How the values were obtained:
[1] = target: T1, VEGF-R (rat VEGF-R2 kinase domain) (Rattus norvegicus, UniProt O08775); experiment: VEGF-R Screening Assay; type: biochemical
T1 construct: 6xHis (polyhistidine) (N)
Experimental: A kinase reaction mixture was prepared containing 50 mM Tris-HCl pH=8, 10 mM MgCl2, 0.1 mM Na3PO4, 1 mM DTT, 10 μM ATP, 0.025 μM biotinylated peptide substrate (also referred to herein as PLC-1 biotinylated peptide substrate and PDGF receptor substrate, sequence provided in the peptide substrate table) and 0.8 μCuries per well ^33P-γ-ATP (2000–3000 Ci/mmol). 70 μL of the kinase reaction mixture was dispensed into the well of a streptavidin coated FlashPlate™ (Cat. # SMP103, NEN, Boston, Mass.). Then 1 μL of test compound stock in 100% DMSO was added to the wells resulting in a final concentration of 1% DMSO in the reaction with a 100 μL final reaction volume. Next, soluble rat VEGF tyrosine kinase containing an N-terminal 6XHIS tag was diluted in 50 mM Tris-HCl pH=8.0, 0.1% BSA at a concentration of 5 ng per μL and 30 μL (150 ng enzyme per test well) was added to each well to initiate the reaction. The reaction was incubated for one hour at 30° C. At the end of the 1-hour incubation, the reaction was terminated by aspirating the reaction mixture from the plate and washing the wells twice with PBS containing 100 mM EDTA. The PLC1 biotinylated peptide substrate became immobilized on the Flashplate™ and the incorporation of ^33P-γ-ATP was measured by reading the plate on a scintillation counter. Inhibition of the enzymatic activity of the VEGF-R was measured by observing a reduced amount of ^33P-γ-ATP incorporated into the immobilized peptide.
Assays to test compound inhibition of other kinases were preformed using methods that measure the amount of phosphorylation of a biotinylated peptide substrate. Biotinylated peptide substrates were selected from the literature as appropriate for the enzyme being evaluated. The general procedure used to assay for kinase activity is as follows: a kinase reaction mix was prepared in 50 mM Tris-HCl pH=8, 10 mM MgCl2, 0.1 mM Na3VO4, 1 mM DTT, 10 μM ATP, 0.25–1 μM biotinylated peptide substrate, 0.2–0.8 μCuries per well ^33P-γ-ATP (2000–3000 Ci/mmol). Assay conditions vary slightly for each protein kinase, for example, insulin receptor kinase requires 10 mM MnCl2 for activity and Calmodulin-dependent protein kinase requires calmodulin and 2 mM CaCl2. The reaction mixture was dispensed into the wells of a streptavidin coated Flashplate and 1 μL test compound in 100% DMSO was added to a 100 μL reaction volume resulting in a final concentration of 1% DMSO in the reaction. Enzyme was diluted in 50 mM Tris-HCl pH=8.0, 0.1% BSA and added to each well. The reaction was incubated for one hour at 30° C. in the presence of a test compound. After one hour the reaction mix was aspirated from the plate and the plate was washed with PBS containing 100 mM EDTA. The plate was read on a scintillation counter to determine ^33P-γ-ATP incorporated into the immobilized peptide substrate. Test compounds were assayed in duplicate at 8 concentrations (100 μM, 10 μM, 1 μM, 100 nM, 10 nM, 1 nM, 100 pM, 10 pM). A maximum and minimum signal for the assay was determined on each plate. […] Known inhibitor compounds appropriate for the kinase being assayed were also included on each plate.
The form of VEGF-R (vascular endothelial growth factor receptor-2) used was a fusion protein containing a polyhistidine tag at the N-terminus followed by amino acids 786–1343 of the rat VEGF-R2 kinase domain (GenBank Accession #U93306). The form of CDK1 (cyclin dependent kinase 1) used was isolated from insect cells expressing both the human CDK1 catalytic subunit and its positive regulatory subunit cyclin B (CDK1:cyclin B protein, New England Biolabs, Beverly, Mass., Cat. #6020). The form of CDK4 (cyclin dependent kinase 4) used contains amino acids 769 to 921 of the mouse […] protein found in the GST-retinoblastoma protein construct (Santa Cruz Biotechnology, Santa Cruz, Calif.; Cat. #SC-4112). The form of EGF-R1 (epidermal growth factor receptor 1) used was purified from human A431 cell membranes (Sigma, St. Louis, Mo., Cat.# E3641). […]

[2] = target: T2, Casein Kinase 2 (Homo sapiens, UniProt P68400); experiment: Kinase selectivity assay Casein Kinase 2; type: biochemical
T2 construct: purchased New England Biolabs 6010; host or cells: E. coli
Experimental: (§1) Assays to test compound inhibition of other kinases were preformed using methods that measure the amount of phosphorylation of a biotinylated peptide substrate. Biotinylated peptide substrates were selected from the literature as appropriate for the enzyme being evaluated. The general procedure used to assay for kinase activity is as follows: a kinase reaction mix was prepared in 50 mM Tris-HCl pH=8, 10 mM MgCl2, 0.1 mM Na3VO4, 1 mM DTT, 10 μM ATP, 0.25–1 μM biotinylated peptide substrate, 0.2–0.8 μCuries per well ^33P-γ-ATP (2000–3000 Ci/mmol). Assay conditions vary slightly for each protein kinase, for example, insulin receptor kinase requires 10 mM MnCl2 for activity and Calmodulin-dependent protein kinase requires calmodulin and 2 mM CaCl2. The reaction mixture was dispensed into the wells of a streptavidin coated Flashplate and 1 μL test compound in 100% DMSO was added to a 100 μL reaction volume resulting in a final concentration of 1% DMSO in the reaction. Enzyme was diluted in 50 mM Tris-HCl pH=8.0, 0.1% BSA and added to each well. The reaction was incubated for one hour at 30° C. in the presence of a test compound. […] The plate was read on a scintillation counter to determine ^33P-γ-ATP incorporated into the immobilized peptide substrate. […] A maximum and minimum signal for the assay was determined on each plate. […]

[3] = target: T3, Calmodulin Kinase (calmodulin-dependent protein kinase 2) (Rattus norvegicus, UniProt P11275); experiment: Kinase selectivity assay Calmodulin Kinase; type: biochemical
T3 construct: purchased New England Biolabs 6060; host or cells: insect cells
Experimental: as §1

[4] = target: GSK-3 (beta isoform) (Oryctolagus cuniculus, UniProt G1T8E2); experiment: Kinase selectivity assay GSK-3; type: biochemical, rabbit
Experimental: as §1

T1 sequence (O08775 786-1343): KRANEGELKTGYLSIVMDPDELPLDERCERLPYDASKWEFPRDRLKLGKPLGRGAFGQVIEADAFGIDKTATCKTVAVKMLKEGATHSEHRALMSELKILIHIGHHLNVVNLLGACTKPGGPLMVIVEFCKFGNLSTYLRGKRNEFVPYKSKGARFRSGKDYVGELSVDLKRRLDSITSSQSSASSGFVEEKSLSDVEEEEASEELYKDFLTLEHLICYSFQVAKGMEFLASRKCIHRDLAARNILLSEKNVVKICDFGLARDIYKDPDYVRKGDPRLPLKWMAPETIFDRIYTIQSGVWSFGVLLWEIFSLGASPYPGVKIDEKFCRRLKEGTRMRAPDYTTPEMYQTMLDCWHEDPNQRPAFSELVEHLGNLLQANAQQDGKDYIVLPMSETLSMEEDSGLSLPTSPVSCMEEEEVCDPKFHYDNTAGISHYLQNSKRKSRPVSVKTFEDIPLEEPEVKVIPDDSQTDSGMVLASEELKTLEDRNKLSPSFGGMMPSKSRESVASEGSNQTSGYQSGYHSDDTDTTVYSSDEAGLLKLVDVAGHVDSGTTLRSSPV
T2 sequence (P68400 whole entry): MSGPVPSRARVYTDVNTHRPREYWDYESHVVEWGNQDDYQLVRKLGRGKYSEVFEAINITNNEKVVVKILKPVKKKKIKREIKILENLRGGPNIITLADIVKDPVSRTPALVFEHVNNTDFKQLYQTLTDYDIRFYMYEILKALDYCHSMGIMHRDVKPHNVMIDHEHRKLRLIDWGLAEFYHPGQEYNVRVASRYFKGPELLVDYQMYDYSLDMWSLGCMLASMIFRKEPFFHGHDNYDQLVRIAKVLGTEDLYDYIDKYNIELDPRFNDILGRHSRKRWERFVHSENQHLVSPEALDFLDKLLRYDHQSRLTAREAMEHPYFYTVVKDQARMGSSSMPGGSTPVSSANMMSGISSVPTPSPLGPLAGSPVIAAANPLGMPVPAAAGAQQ
T2 sequence (P67870 whole entry partner): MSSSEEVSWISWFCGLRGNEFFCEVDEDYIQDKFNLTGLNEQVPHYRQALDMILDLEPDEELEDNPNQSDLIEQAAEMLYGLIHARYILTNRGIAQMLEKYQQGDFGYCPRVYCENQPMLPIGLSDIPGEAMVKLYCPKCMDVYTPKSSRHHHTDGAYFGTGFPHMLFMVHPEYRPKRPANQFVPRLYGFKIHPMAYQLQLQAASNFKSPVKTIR
Chain of GSK-3 (beta isoform) (G1T8E2 1-432): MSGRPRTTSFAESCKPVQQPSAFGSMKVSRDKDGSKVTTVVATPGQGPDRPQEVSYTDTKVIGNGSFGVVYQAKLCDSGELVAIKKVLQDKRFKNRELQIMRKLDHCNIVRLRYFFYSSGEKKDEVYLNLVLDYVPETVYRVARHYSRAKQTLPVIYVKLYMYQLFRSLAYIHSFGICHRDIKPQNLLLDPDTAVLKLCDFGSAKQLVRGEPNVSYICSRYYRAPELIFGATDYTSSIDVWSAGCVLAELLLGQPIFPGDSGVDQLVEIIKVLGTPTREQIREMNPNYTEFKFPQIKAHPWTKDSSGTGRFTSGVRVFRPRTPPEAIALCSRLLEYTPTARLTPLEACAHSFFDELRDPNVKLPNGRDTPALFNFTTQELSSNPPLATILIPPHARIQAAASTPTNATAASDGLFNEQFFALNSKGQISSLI

Row | SMILES | pIC50 [1] | pIC50 [2] | pIC50 [3] | pIC50 [4]
1 | OCCCNc1cc(-c2ncnc(Nc3cccc(Cl)c3)n2)ccn1 [Compound 2, 3-((4-(4-((3-chlorophenyl)amino)-1,3,5-triazin-2-yl)-2-pyridinyl)amino)-1-propanol] | 5.59 | < 4.00 | < 5.00 | 7.77
2 | OCCCNc1cncc(-c2ncnc(Nc3cccc(Cl)c3)n2)c1 [Compound 1, 3-((5-(4-((3-chlorophenyl)amino)-1,3,5-triazin-2-yl)-3-pyridinyl)amino)-1-propanol] | 5.59 | 6.03 | 4.27 | 8.30
